According to US20260207606A1, “DOSING SCHEDULE OF A SOLID DISPERSION OF A HER2 INHIBITOR” (Boehringer Ingelheim International GmbH, priority 2022, published 2026):

How the values were obtained:
[1] = Phase Ia dose escalation trial: pharmacokinetics, plasma exposure; type: in vivo; details: increasing doses, BID and QD
Method: Pharmacokinetic (PK) profiles of compound (1) are investigated after the first and after repeated doses. Standard PK parameters are calculated, if data allows and if scientifically reasonable. […] Statistical analyses are performed.
If deemed necessary, further PK parameters might be used for these assessments.
Preliminary PK analyses can be performed as necessary for DEC decisions. The final preliminary analysis are performed at the end of the dose escalation part prior to proceeding to the dose expansion part. In contrast to the final PK analysis, the preliminary analyses are based on planned sampling times rather than on actual times; no supplementary patient information, e.g. on AEs or concomitant medication, is used in these analyses, and the outputs are not validated. Minor discrepancies between preliminary and final results may therefore occur.

[2] = tested on: HER2 Tyrosine Kinase Domain (TKD) mutation positive non-squamous NSCLC; assay: Phase Ib dose expansion, Cohort 1: objective response and disease control (RECIST 1.1); type: in vivo, human; details: 120/240 mg QD
Description: (§1) This Example focuses on the dose expansion part (Phase Ib) of the Phase I study described in Example 8. Approximately 275 patients diagnosed with advanced or metastatic refractory NSCLC harbouring mutations in the HER2 gene are enrolled. Patients are divided into 5 cohorts according to the main inclusion criteria listed below.
(§2) The trial objectives of Phase Ib include: • For cohort 1, cohort 2, and cohort 5, assess objective tumour response rate by central independent review; • For cohort 3, assess objective tumour response rate by investigator assessment; • For all cohorts, further investigate the safety, tolerability, and PK of the investigated doses of zongertinib in patients with HER2 mutation positive advanced/metastatic NSCLC; • For all cohorts, continue evaluating safety, and patient-reported outcomes.
The primary endpoints of Phase Ib include: • For cohort 1, 2, and 5: objective response (OR) assessed by independent central review, according to Response Evaluation Criteria In Solid Tumors (RECIST) version 1.1; • For cohort 3: objective response (OR) by investigator.
For Cohort 1, 2, and 5: • Duration of objective response (DoR) according to RECIST 1.1 by central independent review; • Disease control (DC) according to RECIST 1.1 by central independent review; • Progression-free survival (PFS) according to RECIST 1.1 by central independent review; […]

[3] = tested on: patients with HER2 mutation positive advanced/metastatic NSCLC; assay: Phase Ib dose expansion, Cohort 1: safety (treatment related adverse events); type: in vivo, human; details: 120/240 mg QD, 42 patients
Description: as §1, §2
The main inclusion criteria include: • Patients with a confirmed diagnosis of an advanced, unresectable and/or metastatic non-haematologic malignancy with at least one measurable lesion; • Availability and willingness to provide a sample of archival formalin-fixed paraffin embedded (FFPE) tumour tissue material; • Patients must be willing to comply with the blood sampling and tumour biopsy requirements for PK, PD and biomarker analyses; • For cohort 1: Patients with documented HER2 Tyrosine Kinase Domain (TKD) mutation positive non-squamous NSCLC who had received, in the advanced/metastatic setting, at least one line of systemic therapy that includes a platinum-based combination chemotherapy; • For cohort 2: Patients with documented HER2 Tyrosine Kinase Domain (TKD) mutation positive non-squamous NSCLC who have not received any previous lines of therapy (neo or adjuvant chemo, chemoradio or radiotherapy is permitted if at least 6 months have elapsed prior to disease progression); • For cohort 3: Patients with documented HER2 Non-TKD mutation positive NSCLC, and HER2 TKD mutation positive squamous NSCLC, who had received in the advanced/metastatic setting at least one line of systemic therapy that includes a platinum-based combination chemotherapy; • Patients in these cohorts 1 to 4 must have not received prior therapy with HER2 directed antibody-drug conjugates (ADC); • For cohort 5: Patients with documented HER2 TKD mutation positive non-squamous NSCLC who had received prior therapy with HER2 directed ADC in the advanced/metastatic setting and developed disease progression during or after completing this therapy.
The treatment consists of reiterated cycles of 3 weeks as long as the patient has clinical benefit or until undue drug toxicity or withdrawal of consent, whichever occurs first.

PC-9 YVMA xenograft = assay: Preclinical PK/TGI model for human dose prediction; parameters: species or system mice; details: PK/TGI model with predicted human PK parameters
Method: This preclinical mathematical model was built with input data from internal in vitro and in vivo data from efficacy experiments in PC-9 YVMA xenograft. Plasma exposure and tumor growth inhibition data from mice were used to train the model. The predicted human PK parameters were used to predict the human plasma profile in the preclinical PK/TGI model. In this setting the PK/TGI model was used to identify the required dose in human necessary to achieve a TGI >100%. This was predicted at 40 mg BID.

NSCLC = assay: Phase Ia dose escalation trial: tumour response according to RECIST v1.1 in NSCLC patients; type: in vivo, human; details: regardless of confirmation, data lock 16 Mar. 2023
Description: Tumour assessments should include computed tomography (CT) scans of the chest, abdomen/pelvis (or PET/CT) and a brain MRI at screening. If clinically indicated, imaging of any other known or suspected sites of disease (e.g. bone) using an appropriate method (CT scan, MRI, PET/CT, or bone scan) should be performed. The same radiographic procedure must be used throughout the trial. Assessments will be performed by the investigator at screening (≤28 days prior to initiation of treatment), every 2 cycles (6 weeks ±5 days), at the end-of-treatment (EOT) visit (if not performed within the previous 3 weeks), and at the discretion of the investigator, and copies may be collected by the sponsor or designee. Wherever possible the assessment schedule should not be changed, but if there is an interruption or delay to treatment, alteration of the tumour assessment schedule to align with clinical assessments is allowed. Additional unscheduled tumour assessments may be performed at the discretion of the investigator. If the patient stops trial medication for a reason other than progression, tumour assessment according to RECIST v1.1 continues until progression (or until one of the following occurs; death, lost to follow-up, end of the trial).
Tumour response is evaluated according to RECIST Version 1.1 (Eisenhauer E A, Therasse P, Bogaerts J, Schwartz L H, Sargent D, Ford R, et al. New response evaluation criteria in solid tumours: revised RECIST guideline (version 1.1). Eur J Cancer. 2009; 45:228-247). RECIST 1.1 is used for a) whole-body assessment (classical RECIST 1.1) and b) the tumour assessment of non-CNS areas. The assessment according to classical RECIST 1.1 by the investigator and/or the local radiologist is the basis for continuation or discontinuation of the trial in an individual patient (in addition to safety). No whole-body RECIST assessment is performed in the dose escalation part.

[4] = 23 evaluable patients (received 2-5 cycles at cut-off)

C=CC(=O)NC1CCN(c2ncc3ncnc(Nc4ccc(Oc5ccc6c(c5)ncn6C)c(C)c4)c3n2)CC1 [compound (1), N-{1-[8-({3-methyl-4-[(1-methyl-1H-1,3-benzodiazol-5-yl)oxy]phenyl}amino)-[1,3]diazino[5,4-d]pyrimidin-2-yl]piperidin-4-yl}prop-2-enamide]
dose proportionality of plasma exposure [1]: no apparent deviation from dose proportional pharmacokinetics
DCR [2, 4]: 91%
ORR [2, 4]: 74%
responding patients on treatment at data cut-off [2]: All responding patients remained on treatment
AEs leading to treatment discontinuation [3]: No AEs led to treatment discontinuation
TRAE diarrhea, all grades [3]: 29%
TRAE diarrhea, grade ≥3 [3]: 0%
TRAE dysgeusia, all grades [3]: 10%
TRAE dysgeusia, grade ≥3 [3]: 0%
TRAE increased aspartate aminotransferase, all grades [3]: 10%
TRAE increased aspartate aminotransferase, grade ≥3 [3]: 2%
TRAE low appetite, all grades [3]: 10%
TRAE low appetite, grade ≥3 [3]: 0%
TRAE rash, all grades [3]: 21%
TRAE rash, grade ≥3 [3]: 0%
Treatment related adverse events (TRAEs), all grades ([3]; Jul. 31, 2023): 67%
Treatment related adverse events (TRAEs), grade ≥3 ([3]; Jul. 31, 2023): 10%
predicted dose in human necessary to achieve a TGI >100% (PC-9 YVMA xenograft): 40 mg BID
Best overall response (RECIST 1.1): Complete response, % (NSCLC; 15 mg BID, 1 NSCLC patients): 0.0%
Best overall response (RECIST 1.1): Non-CR/Non-PD, % (NSCLC; 15 mg BID, 1 NSCLC patients): 0.0%
Best overall response (RECIST 1.1): Not evaluable, % (NSCLC; 15 mg BID, 1 NSCLC patients): 0.0%
Best overall response (RECIST 1.1): Partial response, % (NSCLC; 15 mg BID, 1 NSCLC patients): 0.0%
Best overall response (RECIST 1.1): Progressive disease, % (NSCLC; 15 mg BID, 1 NSCLC patients): 0.0%
Best overall response (RECIST 1.1): Stable disease, % (NSCLC; 15 mg BID, 1 NSCLC patients): 100.0%
Best overall response (RECIST 1.1): Complete response, % (NSCLC; 30 mg BID, 2 NSCLC patients): 0.0%
Best overall response (RECIST 1.1): Non-CR/Non-PD, % (NSCLC; 30 mg BID, 2 NSCLC patients): 0.0%
Best overall response (RECIST 1.1): Not evaluable, % (NSCLC; 30 mg BID, 2 NSCLC patients): 0.0%
Best overall response (RECIST 1.1): Partial response, % (NSCLC; 30 mg BID, 2 NSCLC patients): 50.0%
Best overall response (RECIST 1.1): Progressive disease, % (NSCLC; 30 mg BID, 2 NSCLC patients): 0.0%
Best overall response (RECIST 1.1): Stable disease, % (NSCLC; 30 mg BID, 2 NSCLC patients): 50.0%
Best overall response (RECIST 1.1): Complete response, % (NSCLC; 60 mg BID, 3 NSCLC patients): 0.0%
Best overall response (RECIST 1.1): Non-CR/Non-PD, % (NSCLC; 60 mg BID, 3 NSCLC patients): 0.0%
Best overall response (RECIST 1.1): Not evaluable, % (NSCLC; 60 mg BID, 3 NSCLC patients): 0.0%
Best overall response (RECIST 1.1): Partial response, % (NSCLC; 60 mg BID, 3 NSCLC patients): 66.7%
Best overall response (RECIST 1.1): Progressive disease, % (NSCLC; 60 mg BID, 3 NSCLC patients): 0.0%
Best overall response (RECIST 1.1): Stable disease, % (NSCLC; 60 mg BID, 3 NSCLC patients): 33.3%
Best overall response (RECIST 1.1): Complete response, % (NSCLC; 60 mg QD, 2 NSCLC patients): 0.0%
Best overall response (RECIST 1.1): Non-CR/Non-PD, % (NSCLC; 60 mg QD, 2 NSCLC patients): 0.0%
Best overall response (RECIST 1.1): Not evaluable, % (NSCLC; 60 mg QD, 2 NSCLC patients): 0.0%
Best overall response (RECIST 1.1): Partial response, % (NSCLC; 60 mg QD, 2 NSCLC patients): 50.0%
Best overall response (RECIST 1.1): Progressive disease, % (NSCLC; 60 mg QD, 2 NSCLC patients): 0.0%
Best overall response (RECIST 1.1): Stable disease, % (NSCLC; 60 mg QD, 2 NSCLC patients): 50.0%
Best overall response (RECIST 1.1): Complete response, % (NSCLC; 100 mg BID, 3 NSCLC patients): 0.0%
Best overall response (RECIST 1.1): Non-CR/Non-PD, % (NSCLC; 100 mg BID, 3 NSCLC patients): 0.0%
Best overall response (RECIST 1.1): Not evaluable, % (NSCLC; 100 mg BID, 3 NSCLC patients): 0.0%
Best overall response (RECIST 1.1): Partial response, % (NSCLC; 100 mg BID, 3 NSCLC patients): 33.0%
